Experimental data taken from the supplement of paper PMC11061612.

Tests used:
Assay in all cases: combination Emax (second highest fraction inhibited in the dose matrix, 72 h); higher = more inhibition; extreme values may be limits of the assay
[1] = test system: SJRH30 (Rhabdomyosarcoma)
In short: (§1)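 Bliss excess equals the observed combination effect minus the expected value EA + EB − EA·EB, where EA and EB are the effects of each agent alone. Combination Emax is the second-highest inhibition within the matrix. Inhibition was scaled from CellTiter-Glo 2.0 luminescence, with 0 set by vehicle wells and 1 by blank wells, after 72 hours of two-drug dosing of cells plated in 1536-well plates.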

[2] = test system: RERF-LC-KJ (Lung Adenocarcinoma)
In short: as §1

[3] = test system: PANC-02-03 (Pancreatic Carcinoma)
In short: as §1

[4] = test system: NCI-H1623 (Lung Adenocarcinoma)
In short: as §1

[5] = test system: EB-3 (Burkitt's Lymphoma)
In short: as §1

[6] = test system: HSC-3 (Oral Cavity Carcinoma)
In short: as §1

[7] = test system: SNU-175 (Colorectal Carcinoma)
In short: as §1

HuO-3N1 (Osteosarcoma) = test system: HuO-3N1 (Osteosarcoma)
In short: as §1

[8] = test system: KYSE-70 (Esophageal Squamous Cell Carcinoma)
In short: as §1

[9] = test system: SW684 (Other Solid Carcinomas)
In short: as §1

ES-2 (Ovarian Carcinoma) = test system: ES-2 (Ovarian Carcinoma)
In short: as §1

[10] = test system: SK-MM-2 (Plasma Cell Myeloma)
In short: as §1

KYM-1 (Rhabdomyosarcoma) = test system: KYM-1 (Rhabdomyosarcoma)
In short: as §1

[11] = test system: Caov-3 (Ovarian Carcinoma)
In short: as §1

[12] = test system: OVTOKO (Ovarian Carcinoma)
In short: as §1

[13] = test system: NCI-H1563 (Lung Adenocarcinoma)
In short: as §1

[14] = test system: AsPC-1 (Pancreatic Carcinoma)
In short: as §1

[15] = test system: COLO-684 (Endometrial Carcinoma)
In short: as §1

[16] = test system: RPMI-8866 (Chronic Myelogenous Leukemia)
In short: as §1

[17] = test system: NCI-H810 (Non-Small Cell Lung Carcinoma)
In short: as §1

Row | SMILES | combination Emax [1] | combination Emax [2] | combination Emax [3] | combination Emax [4] | combination Emax [5] | combination Emax [6] | combination Emax [7] | combination Emax (HuO-3N1 (Osteosarcoma)) | combination Emax [8] | combination Emax [9] | combination Emax (ES-2 (Ovarian Carcinoma)) | combination Emax [10] | combination Emax (KYM-1 (Rhabdomyosarcoma)) | combination Emax [11] | combination Emax [12] | combination Emax [13] | combination Emax [14] | combination Emax [15] | combination Emax [16] | combination Emax [17]
1 | Cc1cc2ncnn2cc1Nc1ncc2c(n1)n(C1CCOCC1)c(=O)n2C [AZD7648] + CCN(CCO)CCCOc1ccc2c(Nc3cc(CC(=O)Nc4cccc(F)c4)[nH]n3)ncnc2c1 [AZD2811] (first compound max 10 µM, 7x7, partner max 1 µM) | 0.24 | 0.455 | 0.254 | 0.28 | 0.554 | 0.455 | 0.646 | 0.35 | 0.238 | 0.352 | 0.288 | 0.313 | 0.182 | 0.885 | 0.232 | 0.555 | 0.267 | 0.302 | 0.732 | 0.643
2 | Cc1cc2ncnn2cc1Nc1ncc2c(n1)n(C1CCOCC1)c(=O)n2C [AZD7648] + CN(C)CCCOc1ccc(-c2ccc3ncc4c(c3c2)n(C2CCOCC2)c(=O)n4C)cn1 [AZD0156] (first compound max 10 µM, 7x7, partner max 1 µM) | 0.165 | 0.314 | 0.236 | 0.257 | 0.585 | 0.174 | 0.173 | 0.369 | 0.211 | 0.268 | 0.295 | 0.205 | 0.165 | 0.366 | 0.229 | 0.49 | 0.274 | 0.28 | 0.638 | 0.287
3 | Cc1cc2ncnn2cc1Nc1ncc2c(n1)n(C1CCOCC1)c(=O)n2C [AZD7648] + C[C@@H]1COCCN1C2=NC(=NC(=C2)C3(CC3)[S@](=N)(=O)C)C4=C5C=CNC5=NC=C4 [AZD6738] (first compound max 10 µM, 7x7, partner max 10 µM) | 0.801 | 0.349 | 0.555 | 0.588 | 0.663 | 0.405 | 0.537 | 0.331 | 0.414 | 0.383 | 0.743 | 0.475 | 0.697 | 0.773 | 0.344 | 0.498 | 0.369 | 0.764 | 0.969 | 0.697
4 | Cc1cc2ncnn2cc1Nc1ncc2c(n1)n(C1CCOCC1)c(=O)n2C [AZD7648] + O=C(c1cc(Cc2n[nH]c(=O)c3ccccc23)ccc1F)N1CCN(C(=O)C2CC2)CC1 [Olaparib] (first compound max 10 µM, 7x7, partner max 10 µM) | 0.0648 | 0.241 | 0.147 | 0.446 | 0.377 | 0.15 | 0.0944 | 0.233 | 0.124 | 0.154 | 0.283 | 0.156 | 0.274 | 0.28 | 0.186 | 0.331 | 0.0586 | 0.238 | 0.594 | 0.193
5 | COc1cccc2c1C(=O)c1c(O)c3c(c(O)c1C2=O)C[C@@](O)(C(=O)CO)C[C@@H]3O[C@H]1C[C@H](N)[C@H](O)[C@H](C)O1 [Doxorubicin] + Cc1cc2ncnn2cc1Nc1ncc2c(n1)n(C1CCOCC1)c(=O)n2C [AZD7648] (first compound max 1 µM, 7x7, partner max 10 µM) | 0.925 | 0.711 | 0.506 | 0.647 | 0.919 | 0.702 | 0.823 | 0.81 | 0.502 | 0.556 | 0.76 | 0.371 | 0.956 | 0.826 | 0.216 | 0.58 | 0.267 | 0.627 | 0.996 | 0.756
6 | COc1cccc(OCCCN)c1-c1cc(Nc2cnc(C#N)cn2)n[nH]1 [Prexasertib] + C=CCn1c(=O)c2cnc(Nc3ccc(N4CCN(C)CC4)cc3)nc2n1-c1cccc(C(C)(C)O)n1 [AZD1775] (first compound max 1 µM, partner max 1 µM) | 0.97 | 0.435 | 0.662 | 0.841 | 0.818 | 0.847 | 0.744 | 0.756 | 0.777 | 0.598 | 0.844 | 0.723 | 0.966 | 0.798 | 0.606 | 0.482 | 0.41 | 0.856 | 1 | 0.981
